Measurements published in patent US9758508B2, “2,3-dihydro-isoindole-1-on derivative as BTK kinase suppressant, and pharmaceutical composition including same” (CRYSTALGENOMICS, INC., priority 2012, dated 2017).

Molecular target: BTK (Homo sapiens (Human), UniProt Q06187)
Assay: Assay for BTK inhibition activity (ELISA method)
Format: biochemical
Conditions: 0.4 nM BTK enzyme, 50 μM ATP, 20 minutes at 30° C.
Protocol: In order to evaluate the activity of the compounds of the present invention as a BTK inhibitor, commercially available BTK (Promega) was used for this experiment. Specifically, an enzymatic reaction was conducted by mixing 0.4 nM of BTK enzyme, 40 μM of biotin-S1 substrate peptide and 50 μM of ATP in a reaction buffer (15 mM Tris-HCl (pH 7.5), 20 mM MgCl2, 2 mM MnCl2, 2 mM DTT, 0.1 mg/ml BSA). The mixture was treated with the test compounds at predetermined concentrations and allowed to react for 20 minutes at 30° C. Upon completion of the reaction, the activities of the test compounds were measured by ELISA method. The absorbance value of an untreated sample was used as a control (100% control). BTK enzyme activities were measured after treatment with various concentrations of the test compounds, and the concentration of test compounds resulting in 50% inhibition of BTK enzyme as compared to the control was determined as IC50 of BTK inhibitor.

BTK, sequence (Q06187 whole entry): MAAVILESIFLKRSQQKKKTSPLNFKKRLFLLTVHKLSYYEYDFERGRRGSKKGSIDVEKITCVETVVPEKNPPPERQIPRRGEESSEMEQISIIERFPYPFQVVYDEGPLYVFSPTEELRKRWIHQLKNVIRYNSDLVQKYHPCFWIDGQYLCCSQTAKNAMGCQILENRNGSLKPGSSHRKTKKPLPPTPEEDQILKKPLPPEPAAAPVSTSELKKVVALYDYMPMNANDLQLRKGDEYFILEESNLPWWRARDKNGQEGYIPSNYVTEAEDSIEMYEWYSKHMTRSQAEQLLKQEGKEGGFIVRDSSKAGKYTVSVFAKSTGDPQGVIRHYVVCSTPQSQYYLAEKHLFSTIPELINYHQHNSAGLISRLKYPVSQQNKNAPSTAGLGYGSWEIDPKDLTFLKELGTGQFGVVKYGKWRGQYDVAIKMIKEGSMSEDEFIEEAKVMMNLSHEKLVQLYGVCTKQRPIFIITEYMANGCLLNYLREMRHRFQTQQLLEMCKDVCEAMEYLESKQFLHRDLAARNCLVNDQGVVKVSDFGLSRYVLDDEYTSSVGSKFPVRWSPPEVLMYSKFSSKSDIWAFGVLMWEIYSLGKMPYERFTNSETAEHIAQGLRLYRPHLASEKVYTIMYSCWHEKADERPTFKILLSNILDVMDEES

| Structure (SMILES) | IC50 [pM] |
| --- | --- |
| Cc1cnc(-c2ccc(-c3ccc(NC(=O)Nc4c(F)cc(F)cc4F)cc3F)c3c2C(=O)NC3)[nH]1 [Compound 7, 1-{3-fluoro-4-[7-(5-methyl-1H-imidazol-2-yl)-1-oxo-2,3-dihydro-1H-isoindol-4-yl]-phenyl}-3-(2,4,6-trifluoro-phenyl)-urea] | 100 |
| Cc1cnc(-c2ccc(-c3ccc(NC(=O)Nc4c(F)c(F)c(F)c(F)c4F)cc3F)c3c2C(=O)NC3)[nH]1 [Compound 9, 1-{3-fluoro-4-[7-(5-methyl-1H-imidazol-2-yl)-1-oxo-2,3-dihydro-1H-isoindol-4-yl]-phenyl}-3-pentafluorophenyl-urea] | 400 |
| Cc1cnc(-c2ccc(-c3ccc(NC(=O)Nc4ccc(C#N)c(F)c4)cc3F)c3c2C(=O)NC3)[nH]1 [Compound 15, 1-(4-cyano-3-fluorophenyl)-3-(3-fluoro-4-(7-(5-methyl-1H-imidazol-2-yl)-1-oxoisoindolin-4-yl)phenyl)urea] | 5000 |
| Cc1cnc(-c2ccc(-c3ccc(NC(=O)Nc4c(F)cc(Cl)cc4F)cc3F)c3c2C(=O)NC3)[nH]1 [Compound 19, 1-(4-chloro-2,6-difluoro-phenyl)-3-{3-fluoro-4-[7-(5-methyl-1H-imidazol-2-yl)-1-oxo-2,3-dihydro-1H-isoindol-4-yl]-phenyl}-urea] | 4000 |
| Cc1cnc(-c2ccc(-c3ccc(NC(=O)Nc4c(F)c(F)cc(F)c4F)cc3F)c3c2C(=O)NC3)[nH]1 [Compound 20, 1-{3-fluoro-4-[7-(5-methyl-1H-imidazol-2-yl)-1-oxo-2,3-dihydro-1H-isoindol-4-yl]-phenyl}-3-(2,3,5,6-tetrafluoro-phenyl)-urea] | 900 |

Results, then the compound that gave them:

| IC50 [pM] | Structure (SMILES) |
| --- | --- |
| 1000 | Cc1cnc(-c2ccc(-c3ccc(NC(=O)Nc4c(F)cccc4F)cc3F)c3c2C(=O)NC3)[nH]1 [Compound 3, 1-(2,6-difluoro-phenyl)-3-{3-fluoro-4-[7-(5-methyl-1H-imidazol-2-yl)-1-oxo-2,3-dihydro-1H-isoindol-4-yl]-phenyl}-urea] |
| 900 | Cc1cnc(-c2ccc(-c3ccc(NC(=O)Nc4c(F)cccc4Cl)cc3F)c3c2C(=O)NC3)[nH]1 [Compound 4, 1-(2-chloro-6-fluoro-phenyl)-3-{3-fluoro-4-[7-(5-methyl-1H-imidazol-2-yl)-1-oxo-2,3-dihydro-1H-isoindol-4-yl]-phenyl}-urea] |
| 280 | Cc1cnc(-c2ccc(-c3ccc(NC(=O)Nc4c(F)ccc(F)c4F)cc3F)c3c2C(=O)NC3)[nH]1 [Compound 12, 1-{3-fluoro-4-[7-(5-methyl-1H-imidazol-2-yl)-1-oxo-2,3-dihydro-1H-isoindol-4-yl]-phenyl}-3-(2,3,6-trifluoro-phenyl)-urea] |
| 5600 | Cc1cnc(-c2ccc(-c3ccc(NC(=O)Nc4ccc(F)c(F)c4)cc3F)c3c2C(=O)NC3)[nH]1 [Compound 14, 1-(3,4-difluoro-phenyl)-3-{3-fluoro-4-[7-(5-methyl-1H-imidazol-2-yl)-1-oxo-2,3-dihydro-1H-isoindol-4-yl]-phenyl}-urea] |
| 50 | Cc1cnc(-c2ccc(-c3ccc(NC(=O)Nc4c(F)ccc(Cl)c4F)cc3F)c3c2C(=O)NC3)[nH]1 [Compound 17, 1-(3-chloro-2,6-difluorophenyl)-3-(3-fluoro-4-(7-(5-methyl-1H-imidazol-2-yl)-1-oxoisoindolin-4-yl)phenyl)urea] |
| 70 | Cc1cnc(-c2ccc(-c3ccc(NC(=O)Nc4c(F)ccc(F)c4Cl)cc3F)c3c2C(=O)NC3)[nH]1 [Compound 18, 1-(2-chloro-3,6-difluorophenyl)-3-(3-fluoro-4-(7-(5-methyl-1H-imidazol-2-yl)-1-oxoisoindolin-4-yl)phenyl)urea] |
